Experimental data reported in US9580442B2, “Tricyclic heterocyclic compounds as phosphoinositide 3-kinase inhibitors” (Karus Therapeutics Limited, priority 2009, dated 2017).
Like-named read-outs stand apart in the source and are kept apart here.

Legend:
[1] = target: PI3K p110γ (Homo sapiens (Human), UniProt P48736); test: PI3K isoform biochemical assay, p110γ
[2] = system: A549 (Lung Tumour); test: In vitro inhibition of tumour cell proliferation, A549; format: cell-based
[3] = target: PI3K p110α (Homo sapiens (Human), UniProt P42336); test: PI3K isoform biochemical assay, p110α
Sequence of PI3K p110α (P42336 whole entry, canonical isoform): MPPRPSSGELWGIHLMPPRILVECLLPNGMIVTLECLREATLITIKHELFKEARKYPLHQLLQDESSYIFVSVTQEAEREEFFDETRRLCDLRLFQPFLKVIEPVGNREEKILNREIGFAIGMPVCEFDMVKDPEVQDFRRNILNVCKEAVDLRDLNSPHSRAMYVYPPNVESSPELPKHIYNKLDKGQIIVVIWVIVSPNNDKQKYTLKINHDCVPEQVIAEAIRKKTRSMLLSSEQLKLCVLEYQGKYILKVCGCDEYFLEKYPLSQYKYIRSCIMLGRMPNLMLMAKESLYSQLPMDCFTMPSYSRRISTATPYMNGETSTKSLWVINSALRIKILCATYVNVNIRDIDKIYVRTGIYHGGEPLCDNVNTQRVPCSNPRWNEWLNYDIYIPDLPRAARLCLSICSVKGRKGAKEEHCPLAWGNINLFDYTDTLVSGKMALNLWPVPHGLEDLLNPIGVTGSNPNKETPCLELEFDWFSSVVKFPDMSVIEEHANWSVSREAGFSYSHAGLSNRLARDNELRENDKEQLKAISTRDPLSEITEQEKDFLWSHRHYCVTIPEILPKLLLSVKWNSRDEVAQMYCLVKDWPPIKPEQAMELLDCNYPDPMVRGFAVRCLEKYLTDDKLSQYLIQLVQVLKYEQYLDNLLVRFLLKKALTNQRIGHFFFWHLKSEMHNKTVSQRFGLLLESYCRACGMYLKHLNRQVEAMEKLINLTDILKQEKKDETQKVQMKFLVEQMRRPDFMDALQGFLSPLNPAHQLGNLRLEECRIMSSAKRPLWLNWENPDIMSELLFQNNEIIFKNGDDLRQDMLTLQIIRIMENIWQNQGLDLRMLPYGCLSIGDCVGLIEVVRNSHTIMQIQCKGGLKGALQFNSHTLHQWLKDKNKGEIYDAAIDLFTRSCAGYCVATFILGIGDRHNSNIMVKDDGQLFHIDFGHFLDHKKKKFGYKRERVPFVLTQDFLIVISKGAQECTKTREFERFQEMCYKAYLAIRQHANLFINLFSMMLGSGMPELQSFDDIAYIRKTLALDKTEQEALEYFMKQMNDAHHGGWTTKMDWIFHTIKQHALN
Sequence of PI3K p110α (P27986 whole entry partner, canonical isoform): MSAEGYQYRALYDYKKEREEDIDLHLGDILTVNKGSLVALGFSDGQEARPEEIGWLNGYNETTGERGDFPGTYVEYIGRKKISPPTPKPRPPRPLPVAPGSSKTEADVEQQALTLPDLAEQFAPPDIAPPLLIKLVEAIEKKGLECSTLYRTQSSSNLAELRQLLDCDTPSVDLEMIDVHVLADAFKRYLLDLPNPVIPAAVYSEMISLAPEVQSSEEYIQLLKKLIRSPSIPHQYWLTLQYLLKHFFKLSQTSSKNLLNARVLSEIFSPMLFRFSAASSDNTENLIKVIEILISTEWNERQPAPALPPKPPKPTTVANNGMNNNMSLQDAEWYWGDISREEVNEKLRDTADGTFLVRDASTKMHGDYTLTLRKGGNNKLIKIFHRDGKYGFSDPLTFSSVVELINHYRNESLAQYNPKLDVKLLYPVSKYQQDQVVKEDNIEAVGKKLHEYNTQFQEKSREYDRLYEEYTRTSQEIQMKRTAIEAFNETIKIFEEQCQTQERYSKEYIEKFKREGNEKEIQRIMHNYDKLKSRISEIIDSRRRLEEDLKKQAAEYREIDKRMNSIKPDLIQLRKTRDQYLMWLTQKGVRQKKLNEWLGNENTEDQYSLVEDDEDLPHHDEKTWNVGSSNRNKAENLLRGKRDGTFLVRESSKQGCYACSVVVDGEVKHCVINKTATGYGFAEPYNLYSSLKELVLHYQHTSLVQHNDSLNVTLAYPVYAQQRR

[4] = target: PI3K p110δ (Homo sapiens (Human), UniProt O00329); test: PI3K isoform biochemical assay, p110δ
Sequence of PI3K p110δ (O00329 whole entry, canonical isoform): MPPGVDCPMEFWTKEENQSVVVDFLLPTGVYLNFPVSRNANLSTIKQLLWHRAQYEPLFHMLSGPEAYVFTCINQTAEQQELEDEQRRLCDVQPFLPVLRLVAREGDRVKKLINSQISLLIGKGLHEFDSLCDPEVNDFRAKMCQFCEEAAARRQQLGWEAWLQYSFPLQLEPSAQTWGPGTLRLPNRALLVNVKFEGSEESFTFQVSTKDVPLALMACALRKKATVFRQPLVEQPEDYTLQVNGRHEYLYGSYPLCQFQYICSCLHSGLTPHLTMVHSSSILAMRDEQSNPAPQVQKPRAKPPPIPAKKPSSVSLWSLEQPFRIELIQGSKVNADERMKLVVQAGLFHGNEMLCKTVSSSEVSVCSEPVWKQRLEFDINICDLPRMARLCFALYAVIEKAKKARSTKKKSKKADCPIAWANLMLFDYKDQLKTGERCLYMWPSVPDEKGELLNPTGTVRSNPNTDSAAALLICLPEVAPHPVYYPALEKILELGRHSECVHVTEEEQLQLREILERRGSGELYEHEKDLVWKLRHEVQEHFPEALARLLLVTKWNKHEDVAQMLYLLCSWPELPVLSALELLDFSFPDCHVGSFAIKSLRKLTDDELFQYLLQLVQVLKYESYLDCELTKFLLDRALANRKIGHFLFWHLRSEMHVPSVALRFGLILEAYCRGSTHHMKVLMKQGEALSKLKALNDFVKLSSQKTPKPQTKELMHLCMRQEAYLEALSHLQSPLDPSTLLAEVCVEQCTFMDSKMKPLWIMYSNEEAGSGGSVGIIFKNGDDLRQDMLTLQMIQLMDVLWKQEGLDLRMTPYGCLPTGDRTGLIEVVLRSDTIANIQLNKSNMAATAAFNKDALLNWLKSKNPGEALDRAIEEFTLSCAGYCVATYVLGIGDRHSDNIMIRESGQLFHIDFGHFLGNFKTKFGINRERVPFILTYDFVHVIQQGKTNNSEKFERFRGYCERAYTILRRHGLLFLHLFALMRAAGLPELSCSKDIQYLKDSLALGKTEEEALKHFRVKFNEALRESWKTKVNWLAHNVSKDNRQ
Sequence of PI3K p110δ (P27986 whole entry partner, canonical isoform): as the sequence (P27986 whole entry partner, canonical isoform) above

[5] = system: MCF7 (Breast Tumour); test: In vitro inhibition of tumour cell proliferation, MCF7; format: cell-based
[6] = system: Rheumatoid Arthritis Synovial Fibroblast (RASF); test: In vitro inhibition of rheumatoid arthritis synovial fibroblast (RASF) proliferation; format: cell-based
[7] = system: PC3 (Prostate Tumour); test: In vitro inhibition of tumour cell proliferation, PC3; format: cell-based
[8] = target: PI3K p110β (Homo sapiens (Human), UniProt P42338); test: PI3K isoform biochemical assay, p110β
Sequence of PI3K p110β (P42338 whole entry, canonical isoform): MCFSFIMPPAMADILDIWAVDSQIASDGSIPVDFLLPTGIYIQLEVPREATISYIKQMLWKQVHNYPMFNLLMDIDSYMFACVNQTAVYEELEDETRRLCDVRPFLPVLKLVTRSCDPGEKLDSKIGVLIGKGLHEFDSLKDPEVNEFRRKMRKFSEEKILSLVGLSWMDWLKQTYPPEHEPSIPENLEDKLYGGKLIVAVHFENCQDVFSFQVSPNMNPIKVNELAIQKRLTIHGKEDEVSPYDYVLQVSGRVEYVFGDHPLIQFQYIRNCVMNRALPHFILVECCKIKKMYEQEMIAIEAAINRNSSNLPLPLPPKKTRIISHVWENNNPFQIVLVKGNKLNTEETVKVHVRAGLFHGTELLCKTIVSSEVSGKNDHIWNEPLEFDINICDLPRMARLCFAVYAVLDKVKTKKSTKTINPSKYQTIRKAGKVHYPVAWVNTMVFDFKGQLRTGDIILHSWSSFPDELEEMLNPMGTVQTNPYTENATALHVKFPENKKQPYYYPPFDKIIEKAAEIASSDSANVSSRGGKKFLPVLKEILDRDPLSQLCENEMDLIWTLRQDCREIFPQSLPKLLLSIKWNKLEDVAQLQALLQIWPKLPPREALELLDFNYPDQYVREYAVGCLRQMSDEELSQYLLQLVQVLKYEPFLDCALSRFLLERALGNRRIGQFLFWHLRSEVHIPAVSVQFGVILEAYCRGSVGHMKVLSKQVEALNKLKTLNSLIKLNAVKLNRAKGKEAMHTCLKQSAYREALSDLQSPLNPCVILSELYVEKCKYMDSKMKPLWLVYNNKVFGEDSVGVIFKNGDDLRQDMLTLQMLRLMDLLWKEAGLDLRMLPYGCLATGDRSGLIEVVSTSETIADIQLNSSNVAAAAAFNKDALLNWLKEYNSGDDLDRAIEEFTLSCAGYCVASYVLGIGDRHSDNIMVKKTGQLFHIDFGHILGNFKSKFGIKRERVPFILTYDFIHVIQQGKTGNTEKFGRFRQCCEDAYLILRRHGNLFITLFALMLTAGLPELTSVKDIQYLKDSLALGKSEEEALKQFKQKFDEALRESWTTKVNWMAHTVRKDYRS
Sequence of PI3K p110β (P27986 whole entry partner, canonical isoform): as the sequence (P27986 whole entry partner, canonical isoform) above

[9] = system: TNFα; test: Inhibition of TNFα production from LPS-stimulated hPBMCs; format: cell-based, human; conditions: hPBMCs stimulated with LPS; for inhibition at 1 µM: Homo sapiens, read-out: % Inhibition of Proinflammatory Cytokine Production at 1 uM, TNFα
Description: (§1) 2) Anti-Inflammatory Activity: Inhibition of the Production of Pro-Inflammatory Cytokines from Stimulated Human Peripheral Blood Mononuclear Cells (hPBMCs)
(§2) Compounds were tested at a concentration of 1 uM for cytokine release inhibition in hPBMCs stimulated with LPS (TNFα), PHA (IFNγ) and anti-CD3 (IL-17A, IL-17F, IL-21, IL-23): […]

[10] = system: IL-23; test: Inhibition of IL-23 production from anti-CD3-stimulated hPBMCs; format: cell-based, human; conditions: for inhibition at 1 µM: Homo sapiens, hPBMCs stimulated with anti-CD3, read-out: % Inhibition of Proinflammatory Cytokine Production at 1 uM, IL-23
Description: as §1, §2

[11] = system: IL-17A; test: Inhibition of IL-17A production from anti-CD3-stimulated hPBMCs; format: cell-based, human; conditions: for inhibition at 1 µM: Homo sapiens, hPBMCs stimulated with anti-CD3, read-out: % Inhibition of Proinflammatory Cytokine Production at 1 uM, IL-17A
Description: as §1, §2

[12] = system: IL-21; test: Inhibition of IL-21 production from anti-CD3-stimulated hPBMCs; format: cell-based, human; conditions: for inhibition at 1 µM: Homo sapiens, hPBMCs stimulated with anti-CD3, read-out: % Inhibition of Proinflammatory Cytokine Production at 1 uM, IL-21
Description: as §1, §2

[13] = system: IFNγ; test: Inhibition of IFNγ production from PHA-stimulated hPBMCs; format: cell-based, human; conditions: hPBMCs stimulated with PHA; for inhibition at 1 µM: Homo sapiens, read-out: % Inhibition of Proinflammatory Cytokine Production at 1 uM, IFNγ
Description: as §1, §2

[14] = system: IL-17F; test: Inhibition of IL-17F production from anti-CD3-stimulated hPBMCs; format: cell-based, human; conditions: for inhibition at 1 µM: Homo sapiens, hPBMCs stimulated with anti-CD3, read-out: % Inhibition of Proinflammatory Cytokine Production at 1 uM, IL-17F
Description: as §1, §2

[15] = hPBMCs stimulated with anti-CD3

Sequence of PI3K p110γ (P48736 whole entry, canonical isoform): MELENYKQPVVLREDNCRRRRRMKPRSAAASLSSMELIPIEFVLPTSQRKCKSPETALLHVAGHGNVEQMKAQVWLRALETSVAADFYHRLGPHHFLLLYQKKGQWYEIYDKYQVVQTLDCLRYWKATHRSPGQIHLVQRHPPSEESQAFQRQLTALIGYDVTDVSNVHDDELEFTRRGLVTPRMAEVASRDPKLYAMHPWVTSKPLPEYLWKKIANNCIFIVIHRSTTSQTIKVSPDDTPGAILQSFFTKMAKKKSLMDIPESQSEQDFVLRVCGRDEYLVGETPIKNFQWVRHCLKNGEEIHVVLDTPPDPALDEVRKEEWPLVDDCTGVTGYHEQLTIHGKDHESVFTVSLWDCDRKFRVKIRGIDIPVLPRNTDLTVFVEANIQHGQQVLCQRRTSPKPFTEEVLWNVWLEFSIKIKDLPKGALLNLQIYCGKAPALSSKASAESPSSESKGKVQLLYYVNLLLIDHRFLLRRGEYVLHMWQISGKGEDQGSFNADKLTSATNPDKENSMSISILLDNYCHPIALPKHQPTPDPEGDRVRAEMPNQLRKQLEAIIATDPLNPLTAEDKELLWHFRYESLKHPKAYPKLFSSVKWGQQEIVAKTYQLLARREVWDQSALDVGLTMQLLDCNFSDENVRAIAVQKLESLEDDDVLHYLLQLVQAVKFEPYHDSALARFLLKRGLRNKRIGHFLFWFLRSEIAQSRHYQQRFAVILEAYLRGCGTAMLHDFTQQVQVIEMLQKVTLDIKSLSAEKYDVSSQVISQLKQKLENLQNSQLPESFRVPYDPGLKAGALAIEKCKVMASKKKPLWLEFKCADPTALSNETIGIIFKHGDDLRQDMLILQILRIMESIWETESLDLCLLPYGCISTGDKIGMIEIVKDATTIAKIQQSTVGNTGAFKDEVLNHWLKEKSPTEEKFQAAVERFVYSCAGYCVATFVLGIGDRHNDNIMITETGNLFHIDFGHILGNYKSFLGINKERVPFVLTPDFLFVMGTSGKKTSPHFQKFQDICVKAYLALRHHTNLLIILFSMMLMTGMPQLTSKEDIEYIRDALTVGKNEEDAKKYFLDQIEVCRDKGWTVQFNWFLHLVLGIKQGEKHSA

IC50 [1] [nM]	IC50 ([2]; Homo sapiens) [nM]	IC50 [3] [nM]	IC50 [4] [nM]	IC50 ([5]; Homo sapiens) [nM]	IC50 ([7]; Homo sapiens, PC-3) [nM]	IC50 [8] [nM]	Compound	IC50 ([6]; Fibroblast) [nM]	other results
873	151	54	15	331	3010	137	c1cc(-c2nc(N3CCOCC3)c3sc4ncccc4c3n2)c2cc[nH]c2c1 [A, 2-(1H-Indol-4-yl)-4-morpholin-4-yl-pyrido[3′,2′:4,5]thieno[3,2-d]pyrimidine]	1350	
317	229	159	6	145	1340	19	c1cc(-c2nc(N3CCOCC3)c3oc4ncccc4c3n2)c2cc[nH]c2c1 [B, 2-(1H-Indol-4-yl)-4-morpholin-4-yl-pyrido[3′,2′:4,5]furo[3,2-d]pyrimidine]	817	inhibition at 1 µM [9]: 26%; inhibition at 1 µM [10]: 94%; inhibition at 1 µM [11]: 99%; inhibition at 1 µM [12]: 96%; inhibition at 1 µM [13]: 73%; inhibition at 1 µM [14]: 96%
							c1cc(-c2nc(N3CCOCC3)c3oc4ncc(CN5CCCCC5)cc4c3n2)c2cc[nH]c2c1 [Compound I, 2-(1H-Indol-4-yl)-4-morpholin-4-yl-8-piperidin-1-ylmethyl-pyrido[3′,2′:4,5]furo[3,2d]pyrimidine]	5720	inhibition at 1 µM [9]: 61%; inhibition at 1 µM [10]: 90%; inhibition at 1 µM [11]: 95%; inhibition at 1 µM [12]: 96%; inhibition at 1 µM [13]: 80%; inhibition at 1 µM [14]: 95%
103		104	33			57	c1cnc2oc3c(N4CCOCC4)nc(-c4ccnc5[nH]ccc45)nc3c2c1 [D, 4-Morpholin-4-yl-2-(1H-pyrrolo[2,3-b]pyridin-4-yl)-pyrido[3′,2′:4,5]furo[3,2-d]pyrimidine]		
627		88	7			69	c1cc(-c2cnc3oc4c(N5CCOCC5)nc(-c5cccc6[nH]ccc56)nc4c3c2)c2cc[nH]c2c1 [E, 2,8-Bis-(1H-indol-4-yl)-4-morpholin-4-yl-pyrido[3′,2′:4,5]furo[3,2-d]pyrimidine]		
213	466	398	6	165	3030	63	CN(C)Cc1cnc2oc3c(N4CCOCC4)nc(-c4cccc5[nH]ccc45)nc3c2c1 [H, [2-(1H-Indol-4-yl)-4-morpholin-4-yl-pyrido[3′,2′:4,5]furo[3,2-d]pyrimidin-8-ylmethyl]-dimethyl-amine]	1900	inhibition at 1 µM [9]: 75%; inhibition at 1 µM [10]: 93%; inhibition at 1 µM [11]: 99%; inhibition at 1 µM [12]: 96%; inhibition at 1 µM [13]: 87%; inhibition at 1 µM [14]: 96%
1040		680	26			277	CN1CCN(Cc2cnc3oc4c(N5CCOCC5)nc(-c5cccc6[nH]ccc56)nc4c3c2)CC1 [J, 2-(1H-Indol-4-yl)-8-(4-methyl-piperazin-1-ylmethyl)-4-morpholin-4-yl-pyrido[3′,2′:4,5]furo[3,2-d]pyrimidine]		
2610	682	355	6	352	3340	64	c1cc(-c2nc(N3CCOCC3)c3oc4ncc(CN5CCOCC5)cc4c3n2)c2cc[nH]c2c1 [K, 2-(1H-Indol-4-yl)-4-morpholin-4-yl-8-morpholin-4-ylmethyl-pyrido[3′,2′:4,5]furo[3,2-d]pyrimidine]	3020	
1820	1600	604	21	119	3240	111	COCCN(C)Cc1cnc2oc3c(N4CCOCC4)nc(-c4cccc5[nH]ccc45)nc3c2c1 [L, [2-(1H-Indol-4-yl)-4-morpholin-4-yl-pyrido[3′,2′:4,5]furo[3,2-d]pyrimidin-8-ylmethyl]-(2-methoxy-ethyl)-methyl-amine]		
219		96	10			25	c1cc(-c2nc(N3CCOCC3)c3oc4ncc(N5CCOCC5)cc4c3n2)c2cc[nH]c2c1 [M, 2-(1H-Indol-4-yl)-4,8-di-morpholin-4-yl-pyrido[3′,2′:4,5]furo[3,2-d]pyrimidine]	1610	
2540		597	22			131	N#CCCN1CCN(Cc2cnc3oc4c(N5CCOCC5)nc(-c5cccc6[nH]ccc56)nc4c3c2)CC1 [R, 3-{4-[2-(1H-Indol-4-yl)-4-morpholin-4-yl-pyrido[3′,2′:4,5]furo[3,2-d]pyrimidin-8-ylmethyl]-piperazin-1-yl}-propionitrile]		

Compound	IC50 [1] [nM]	IC50 ([2]; Homo sapiens) [nM]	IC50 [3] [nM]	IC50 [4] [nM]	IC50 ([5]; Homo sapiens) [nM]	IC50 ([7]; Homo sapiens, PC-3) [nM]	IC50 [8] [nM]	IC50 ([6]; Fibroblast) [nM]	other results
CN(C)C(=O)/C=C/c1cnc2oc3c(N4CCOCC4)nc(-c4cccc5[nH]ccc45)nc3c2c1 [G, (E)-3-[2-(1H-Indol-4-yl)-4-morpholin-4-yl-pyrido[3′,2′:4,5]furo[3,2-d]pyrimidin-8-yl]-N,N-dimethylacrylamide]	1660	186	223	5	127	3770	83		
(E)-1-(4-Methyl-piperazin-1-yl)-3-[4-morpholin-4-yl-2-(1H-pyrrolo[2,3-b]pyridin-4-yl)-pyrido[3′,2′:4,5]furo[3,2-d]pyrimidin-8-yl]-propenone	269		127	6			109		% Inhibition of Proinflammatory Cytokine Production at 1 uM, TNFα [9]: 74%; IC50 [2]: 1150 nM; % Inhibition of Proinflammatory Cytokine Production at 1 uM, IL-23 [10, 15]: 93%; IC50 [5]: 215 nM; % Inhibition of Proinflammatory Cytokine Production at 1 uM, IL-17A [11, 15]: 77%; % Inhibition of Proinflammatory Cytokine Production at 1 uM, IL-21 [12, 15]: 82%; % Inhibition of Proinflammatory Cytokine Production at 1 uM, IFNγ [13]: 67%; IC50 [6]: 2240 nM; % Inhibition of Proinflammatory Cytokine Production at 1 uM, IL-17F [14, 15]: 74%; IC50 [7]: 7290 nM
